Among the data in PubChem BioAssay (NCI) are GI50 and TGI values, retold here.

Some test systems named below: CCRF-CEM leukemia; SN12C renal; BT-549 breast; KM12 colon; NCI-H460 lung; M14 melanoma; COLO 205 colon; T-47D breast; HT29 colon; EKVX NSCLC.
Common to all, as to experiment: NCI tumour cell line growth inhibition, 48 h

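Grown in 96-well plates, cells were treated for 48 hours with each compound at five concentrations. Insufficient inhibition: endpoint recorded as highest concentration tested. GI50: concentration for 50% inhibition of growth. TGI: total growth inhibition.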

Consider `Cc1ccc(N)cc1[As]=[As]c1cc(N)ccc1C` (centres undefined), for which the GI50 in the assay with CCRF-CEM leukemia was 298 nM; in the assay on SN12C renal it was 1.4 µM; with BT-549 breast, 1.46 µM; in the assay with KM12 colon, 1950 nM; with NCI-H460 lung, 3080 nM; in the assay with M14 melanoma it was 1.71 µM. For the same molecule, the GI50 in the assay on COLO 205 colon is 1.33 µM. Further, the TGI with CCRF-CEM leukemia was 2.36 µM; in the assay with SN12C renal it was 2.88 µM; in the assay with BT-549 breast it was 2.8 µM; with KM12 colon, 3.81 µM; in the assay with NCI-H460 lung, 12.2 µM; in the assay on M14 melanoma, 3.4 µM. The molecule further displayed a TGI in the assay on COLO 205 colon of 2.77 µM.
As to `O=C(Nc1nc(-c2ccc(Cl)cc2)cs1)c1cc(O)c(O)c(O)c1`, the GI50 in the assay on CCRF-CEM leukemia was 79000 nM; with SN12C renal, 172 µM; in the assay with T-47D breast, 125000 nM; in the assay with BT-549 breast, 252 µM; in the assay on KM12 colon it was 315000 nM; in the assay with NCI-H460 lung it was 181000 nM. Moreover, the GI50 in the assay with M14 melanoma was 244 µM; in the assay with HT29 colon, 572 µM; with COLO 205 colon it was 584 µM. Further, the TGI was found to be 760 µM in the assay with CCRF-CEM leukemia; 3780 µM in the assay with SN12C renal; 671 µM in the assay with T-47D breast; 1870 µM in the assay with BT-549 breast; 1460 µM in the assay on KM12 colon; 964 µM with NCI-H460 lung. In addition, the figures for the TGI with M14 melanoma, in the assay on HT29 colon and with COLO 205 colon were 4610 µM, 2250 µM and 1810 µM, respectively.
Regarding `COc1cc(C(=O)/C=C/c2cc(-c3ccc4c(c3)OCO4)n[nH]2)cc(OC)c1OC`, the GI50 in the assay with CCRF-CEM leukemia was 2000 nM; in the assay with SN12C renal, 2.26 µM; in the assay with T-47D breast, 1510 nM; in the assay with BT-549 breast it was 2.02 µM; in the assay on KM12 colon, 1860 nM; in the assay with NCI-H460 lung it was 1810 nM. For the same molecule, the GI50 is 2.91 µM in the assay on M14 melanoma, 2.45 µM in the assay on HT29 colon and 2.08 µM in the assay on COLO 205 colon. Moreover, the TGI in the assay on CCRF-CEM leukemia was 5.74 µM; with SN12C renal, 6.28 µM; in the assay with T-47D breast, 4.63 µM; in the assay on BT-549 breast, 5 µM; with KM12 colon it was 3.85 µM; in the assay with NCI-H460 lung, 3.77 µM. Moreover, the TGI amounted to 9.2 µM with M14 melanoma, 6.53 µM in the assay with HT29 colon and 4.66 µM in the assay on COLO 205 colon.
As for `CCc1nc(C)cn1C(=O)OCc1nc2nc(Cl)nc(N3CCOCC3)c2[nH]1`, the GI50 in the assay on CCRF-CEM leukemia is 302 nM; in the assay on SN12C renal, 1.35 µM; with EKVX NSCLC, 1.43 µM; in the assay with BT-549 breast, 1.55 µM; in the assay on KM12 colon it was 1560 nM; with NCI-H460 lung it was 1700 nM. Also, the values for the GI50 with M14 melanoma, with HT29 colon and in the assay on COLO 205 colon were 1.27 µM, 1 µM and 1.37 µM, respectively. Also, the TGI stood at 1.19 µM in the assay on CCRF-CEM leukemia; 2.74 µM in the assay on SN12C renal; 3.07 µM with EKVX NSCLC; 4.26 µM with BT-549 breast; 3.29 µM in the assay on KM12 colon; 3.76 µM with NCI-H460 lung. Also, the TGI worked out at 3.1 µM in the assay on M14 melanoma, 4.04 µM in the assay with HT29 colon and 2.94 µM in the assay on COLO 205 colon.
With `COc1cc(OCc2ccccc2)c2c(CCC(=O)O)cc(=O)oc2c1` (tested in a mixture with another compound), the TGI in the assay with CCRF-CEM leukemia, in the assay on EKVX NSCLC, with BT-549 breast, in the assay with KM12 colon, in the assay with M14 melanoma and with HT29 colon was greater than 100 µM throughout. This molecule also returned a TGI in the assay with COLO 205 colon greater than 100 µM.
Regarding `CCCCC(=O)N(c1ccc(Nc2c3ccccc3nc3cc([N+](=O)[O-])ccc23)cc1)S(C)(=O)=O`, the GI50 in the assay with CCRF-CEM leukemia is 3650 nM; with SN12C renal it was 4.86 µM; with T-47D breast, 588 nM; with BT-549 breast, 18.4 µM; in the assay with KM12 colon, 2630 nM; with NCI-H460 lung it was 381 nM. In addition, the GI50 in the assay on M14 melanoma is 11 µM; in the assay with HT29 colon it was 13.6 µM; with COLO 205 colon it was 12.7 µM. Also, the TGI in the assay on CCRF-CEM leukemia was greater than 100 µM; with SN12C renal, greater than 100 µM; with T-47D breast it was 6.73 µM; in the assay with BT-549 breast, 80.6 µM; in the assay on KM12 colon, 19.3 µM; in the assay on NCI-H460 lung it was 12.8 µM. Also, the TGI in the assay on M14 melanoma turned out to be 33.6 µM; in the assay with HT29 colon, 60.3 µM; in the assay on COLO 205 colon, 36 µM.
In the case of `COC(=O)C1C(C(=O)O)C2(c3ccccc3)C(=O)C1(c1ccccc1)C(c1ccccc1)=C2c1ccccc1` (centres undefined), the GI50 with CCRF-CEM leukemia was 11700 nM; with SN12C renal, 18 µM; with EKVX NSCLC, 18.8 µM; in the assay on BT-549 breast, 18 µM; in the assay with KM12 colon, 16000 nM; in the assay with NCI-H460 lung, 13600 nM. In addition, the GI50 in the assay on M14 melanoma was 19.6 µM; in the assay with COLO 205 colon, 18.8 µM. Also, the TGI in the assay with CCRF-CEM leukemia worked out at 33.6 µM; in the assay with SN12C renal, 38.9 µM; in the assay on EKVX NSCLC, 42.3 µM; in the assay with BT-549 breast it was 37.6 µM; in the assay on KM12 colon, 38 µM; with NCI-H460 lung, 29.1 µM. Besides, the results for the TGI in the assay with M14 melanoma and with COLO 205 colon were 35.7 µM and 39.3 µM, respectively.
